Reference: publication doi:10.1101/2025.07.03.663083, “TMC1 and TMC2 are cholesterol-dependent scramblases that regulate membrane homeostasis in auditory hair cells” (bioRxiv, 2025)

Experiments:
Experiment in all cases: proteoliposome scramblase assay, dithionite and BSA back-extraction of NBD fluorescence
Assay type in all cases: functional
FL CmTMC1 = molecular target: T1, FL CmTMC1 (Chelonia mydas, UniProt Z9P3M8BL59); details: labelled compound; POPC/POPE/POPS 2:1:1 with 10% cholesterol, pH 7.4, 25 °C; lipid translocation, no headgroup specificity
T1 construct: full length, 1-955; His-GFP tag; Sf9 (baculovirus); reconstituted in liposomes
T1 sequence (Z9P3M8BL59 1-955): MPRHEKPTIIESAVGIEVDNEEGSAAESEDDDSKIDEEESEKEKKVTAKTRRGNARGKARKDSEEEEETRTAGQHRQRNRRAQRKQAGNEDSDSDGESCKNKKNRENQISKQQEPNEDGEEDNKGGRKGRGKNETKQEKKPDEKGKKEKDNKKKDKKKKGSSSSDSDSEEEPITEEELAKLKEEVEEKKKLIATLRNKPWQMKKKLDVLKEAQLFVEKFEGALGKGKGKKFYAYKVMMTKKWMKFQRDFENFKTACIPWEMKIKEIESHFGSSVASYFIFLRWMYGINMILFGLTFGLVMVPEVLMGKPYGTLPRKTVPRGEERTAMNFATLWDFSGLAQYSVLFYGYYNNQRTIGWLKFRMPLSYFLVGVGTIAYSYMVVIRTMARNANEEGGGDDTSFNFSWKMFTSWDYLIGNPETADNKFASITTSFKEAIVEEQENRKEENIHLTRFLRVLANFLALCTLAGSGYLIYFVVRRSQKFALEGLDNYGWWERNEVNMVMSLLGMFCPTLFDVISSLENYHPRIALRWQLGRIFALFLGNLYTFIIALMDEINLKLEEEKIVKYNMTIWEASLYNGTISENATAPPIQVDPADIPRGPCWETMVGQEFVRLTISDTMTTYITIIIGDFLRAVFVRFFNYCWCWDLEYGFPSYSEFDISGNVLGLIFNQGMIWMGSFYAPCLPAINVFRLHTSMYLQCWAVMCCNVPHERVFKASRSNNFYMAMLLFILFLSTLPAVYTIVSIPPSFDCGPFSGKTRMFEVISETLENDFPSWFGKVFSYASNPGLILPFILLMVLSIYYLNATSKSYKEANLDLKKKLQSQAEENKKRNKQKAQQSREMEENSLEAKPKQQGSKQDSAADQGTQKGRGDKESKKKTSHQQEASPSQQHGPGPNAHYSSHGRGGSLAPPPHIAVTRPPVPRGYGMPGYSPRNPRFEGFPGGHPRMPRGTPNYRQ

MuTMC2 (truncated) = molecular target: T2, MuTMC2 (truncated) (Melopsittacus undulatus, UniProt Z9DQS5U608); details: labelled compound; POPC/POPE/POPS […] with […] cholesterol, pH […] °C; lipid translocation, no headgroup specificity
T2 construct: transmembrane core without N- and C-terminal domains; His-GFP tag kept; Sf9 (baculovirus); purified in DDM/CHS, reconstituted in liposomes
T2 sequence (Z9DQS5U608 211-807): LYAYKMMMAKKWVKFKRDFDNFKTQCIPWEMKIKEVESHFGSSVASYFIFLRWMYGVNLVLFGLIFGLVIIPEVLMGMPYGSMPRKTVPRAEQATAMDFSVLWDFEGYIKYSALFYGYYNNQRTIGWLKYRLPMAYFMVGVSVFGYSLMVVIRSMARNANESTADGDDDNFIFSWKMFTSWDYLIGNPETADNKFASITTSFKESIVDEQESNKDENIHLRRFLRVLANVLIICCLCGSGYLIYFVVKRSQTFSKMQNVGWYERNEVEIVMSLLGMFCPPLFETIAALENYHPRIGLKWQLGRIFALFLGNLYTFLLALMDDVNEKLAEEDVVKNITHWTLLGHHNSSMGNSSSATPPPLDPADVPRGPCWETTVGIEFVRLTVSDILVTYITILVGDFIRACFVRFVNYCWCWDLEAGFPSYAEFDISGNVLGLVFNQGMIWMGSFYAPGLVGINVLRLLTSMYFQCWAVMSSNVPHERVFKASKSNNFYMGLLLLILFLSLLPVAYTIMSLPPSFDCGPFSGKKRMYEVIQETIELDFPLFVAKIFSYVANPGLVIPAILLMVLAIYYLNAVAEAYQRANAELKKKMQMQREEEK

CmTMC1 (truncated) = molecular target: T3, CmTMC1 (truncated) (Chelonia mydas, UniProt Z9P3M8BL59); details: labelled compound; POPC/POPE/POPS 2:1:1 with 10% cholesterol, pH 7.4, 25 °C; lipid translocation, no headgroup specificity
T3 construct: transmembrane core without N- and C-terminal domains; His-GFP tag kept; Sf9 (baculovirus); purified in DDM/CHS, reconstituted in liposomes
T3 sequence (Z9P3M8BL59 230-828): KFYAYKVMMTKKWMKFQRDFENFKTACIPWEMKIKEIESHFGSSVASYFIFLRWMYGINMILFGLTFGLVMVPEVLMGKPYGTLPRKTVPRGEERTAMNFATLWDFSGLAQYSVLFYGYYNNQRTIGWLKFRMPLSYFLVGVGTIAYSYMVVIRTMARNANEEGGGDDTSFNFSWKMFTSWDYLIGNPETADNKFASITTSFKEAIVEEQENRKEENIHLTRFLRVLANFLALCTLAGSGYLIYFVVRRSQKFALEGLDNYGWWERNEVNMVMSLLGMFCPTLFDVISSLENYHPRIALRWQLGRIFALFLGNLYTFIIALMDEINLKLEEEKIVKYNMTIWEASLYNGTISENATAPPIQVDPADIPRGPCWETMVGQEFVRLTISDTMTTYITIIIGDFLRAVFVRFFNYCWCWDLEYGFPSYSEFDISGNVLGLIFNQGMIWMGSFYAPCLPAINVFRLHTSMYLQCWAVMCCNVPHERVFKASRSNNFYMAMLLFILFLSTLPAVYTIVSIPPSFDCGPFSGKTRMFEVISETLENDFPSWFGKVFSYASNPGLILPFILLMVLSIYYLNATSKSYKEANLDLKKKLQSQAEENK

FL MuTMC2 = molecular target: T4, FL MuTMC2 (Melopsittacus undulatus, UniProt Z9DQS5U608); details: labelled compound; POPC/POPE/POPS […] with […] cholesterol, pH […] °C; lipid translocation, no headgroup specificity
T4 construct: full length, 1-928; His-GFP tag; Sf9 (baculovirus); reconstituted in liposomes
T4 sequence (Z9DQS5U608 1-928): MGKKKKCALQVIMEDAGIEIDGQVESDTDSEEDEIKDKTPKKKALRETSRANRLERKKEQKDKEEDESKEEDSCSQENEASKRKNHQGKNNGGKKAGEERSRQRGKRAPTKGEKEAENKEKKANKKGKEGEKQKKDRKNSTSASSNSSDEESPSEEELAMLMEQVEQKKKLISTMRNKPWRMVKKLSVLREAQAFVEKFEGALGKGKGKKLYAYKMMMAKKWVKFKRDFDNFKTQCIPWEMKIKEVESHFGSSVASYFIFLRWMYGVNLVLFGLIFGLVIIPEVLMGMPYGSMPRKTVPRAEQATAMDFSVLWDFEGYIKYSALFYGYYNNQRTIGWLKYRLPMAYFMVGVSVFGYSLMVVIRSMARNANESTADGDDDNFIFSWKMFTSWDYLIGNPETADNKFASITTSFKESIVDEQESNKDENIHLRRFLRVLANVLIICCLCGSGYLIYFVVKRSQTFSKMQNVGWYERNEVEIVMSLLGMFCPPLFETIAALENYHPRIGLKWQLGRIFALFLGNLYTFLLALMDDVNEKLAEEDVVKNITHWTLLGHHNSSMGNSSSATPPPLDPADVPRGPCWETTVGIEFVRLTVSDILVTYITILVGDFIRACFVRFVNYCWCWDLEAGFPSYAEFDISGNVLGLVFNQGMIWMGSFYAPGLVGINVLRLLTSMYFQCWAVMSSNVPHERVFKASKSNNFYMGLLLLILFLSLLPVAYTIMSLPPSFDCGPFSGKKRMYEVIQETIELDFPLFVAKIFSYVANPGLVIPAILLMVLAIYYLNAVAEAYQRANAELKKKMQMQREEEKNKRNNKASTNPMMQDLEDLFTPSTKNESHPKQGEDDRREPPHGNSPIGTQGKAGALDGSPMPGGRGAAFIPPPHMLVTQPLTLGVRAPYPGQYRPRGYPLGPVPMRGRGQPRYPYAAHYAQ

`CCCCCCCCCCCCCC(=O)OC[C@H](COP(=O)(O)OCCN)OC(=O)CCCCCNc1ccc([N+](=O)[O-])c2nonc12` [NBD-PE, 1-myristoyl-2-sn-glycero-3-phosphoethanolamine] was tested, and the “proteoliposome scramblase assay, dithionite and BSA back-extraction of NBD fluor” value (shortened to “proteoliposome scramblase assay”) (FL CmTMC1) was “no differences in PLS activity between truncated and FL CmTMC1 and MuTMC2”, the “proteoliposome scramblase assay” value (MuTMC2 (truncated)) was “due to scrambling of the fluorescent NBD-PE lipids by the TMC proteins” and the “proteoliposome scramblase assay” value (CmTMC1 (truncated)) was “due to scrambling of the fluorescent NBD-PE lipids by the TMC proteins”. The “proteoliposome scramblase assay” value (FL MuTMC2) was “no differences in PLS activity between truncated and FL CmTMC1 and MuTMC2”.
